pEC50, pIC50: −log10 of the molar value. Read-outs that look alike come from different tables or passages of the source.
Key:
[1] = test system: HCV 1a-H77 subgenomic replicon; test: microbe, parasite or virus in culture; assay type: cell-based, HCV genotype 1a; settings: Hepatitis C virus, stable replicon
[2] = target: T1, HCV NS5B polymerase 1a-H77 (Hepatitis C virus genotype 1a, UniProt P27958); test: biochemical; set-up: species or system HCV genotype 1a; settings: enzyme, strain 1a H77; read-out: HCV Polymerase Strain 1a H77 IC50
T1 construct: six-histidine tag; made in house; host or cells: E. coli
T1 sequence (P27958 2421-2990): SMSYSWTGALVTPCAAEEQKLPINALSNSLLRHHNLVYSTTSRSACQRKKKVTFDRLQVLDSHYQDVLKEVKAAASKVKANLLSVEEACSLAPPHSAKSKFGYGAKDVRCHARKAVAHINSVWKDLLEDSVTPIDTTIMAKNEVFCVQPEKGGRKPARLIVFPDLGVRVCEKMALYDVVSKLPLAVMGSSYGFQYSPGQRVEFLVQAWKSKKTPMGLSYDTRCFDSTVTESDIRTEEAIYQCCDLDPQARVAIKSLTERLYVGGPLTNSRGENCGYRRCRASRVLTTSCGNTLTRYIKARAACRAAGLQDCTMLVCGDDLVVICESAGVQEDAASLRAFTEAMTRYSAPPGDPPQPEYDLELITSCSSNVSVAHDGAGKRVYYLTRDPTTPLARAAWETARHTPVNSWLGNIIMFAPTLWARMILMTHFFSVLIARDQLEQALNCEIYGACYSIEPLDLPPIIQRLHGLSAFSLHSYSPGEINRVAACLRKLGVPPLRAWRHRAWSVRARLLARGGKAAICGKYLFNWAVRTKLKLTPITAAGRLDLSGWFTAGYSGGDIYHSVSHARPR
Procedure: (§1) Purified HCV NS5B polymerase enzymes were used for polymerase inhibition assays. All recombinant HCV polymerases contained the first 570 amino acids of the 591 amino acid native protein sequence and a six-histidine tag at the N-terminus or C-terminus to facilitate purification by affinity chromatography. The DNA nucleotide sequence for the HCV polymerase 1b BK strain was codon optimized for expression in E. coli. A synthetic gene was prepared from a series of overlapping oligonucleotides that were filled in using a DNA polymerase and amplified by PCR. The patient isolate HCV polymerases were cloned by RT-PCR methods using HCV RNA extracted from the serum of infected subjects obtained from ProMedDx and BioCollections (genotypes 2a, 2b, 3a, and 4a). Laboratory strains were cloned from plasmid DNA (1a-H77 or 1a-H77-C316Y) or from existing replicon cells (1b Rice). In all cases the amplified DNA was cloned into a protein expression vector (typically a pET vector from Novagen) and then multiple clones were sequenced to identify one whose NS5B sequence agreed with the population sequence. This sequence-confirmed clone was then transfected into E. coli for protein expression and purification. E. coli cultures were grown to a maximum optical density (OD) of 2-3 and then induced with 0.4 mM isopropyl beta-D-thiogalactopyranoside (IPTG) and grown for 20 hours at 20° C.
(§2) Proteins were purified using nickel affinity chromatography, and additional column steps were added including, ion exchange, size exclusion, hydrophobic ion, and poly-U affinity chromatography, as needed, depending on the sample being purified. The template RNA used in the polymerase enzymatic assay was a 2.1 kb construct that corresponds to the 3′-end of an HCV genotype 1b negative strand RNA.
(§3) The reaction was initiated by the addition of 20 μM CTP, 20 μM ATP, 0.284 μM (0.5 μCi) of 5,6-[^3H] UTP, 5 nM template RNA and 0.1 U/μL RNase inhibitor (RNasin, Promega), and allowed to proceed for three hours at 30° C. The final reaction volume was 50 μL. The reaction was terminated by the addition of 50 uL of 4 mM spermine in 10 mM Tris-HCl, pH 7.5, 1 mM EDTA. The quenched reaction was allowed to incubate for at least 15 minutes at room temperature, and then the precipitated RNA was captured by filtration through a glass fiber filter (GF/B, Millipore) in a 96 well format. The filter plate was washed five times with 200 μL of 2 mM spermine, 10 mM Tris-HCl, pH 8.0, 1 mM EDTA, and two times with ethanol. After drying thoroughly in air, 30 μL of Microscint-20 scintillation cocktail (Perkin Elmer) was added to each well, and the retained cpm were determined by scintillation counting. IC50 values were determined by nonlinear regression.
(§4) % Inhibition=100*[[I]/([I]+[IC50])] equation 1
(§5) V=kcat[S]/2(Km+[S])*(sqrt((IC50+I−E)̂2+(4*IC50*E))−(IC50+I−E)) equation 2

[3] = test system: HCV NS5B polymerase 1a-H77-C316Y; test: biochemical; set-up: species or system HCV genotype 1a; settings: ratio of enzyme IC50s, 1a H77-C316Y / 1a H77
Procedure: as §1, §2, §3, §4, §5

[4] = target: T2, HCV NS5B polymerase 1a-H77-C316Y (Hepatitis C virus genotype 1a, UniProt P27958, C2736Y); test: biochemical; set-up: species or system HCV genotype 1a
T2 construct: six-histidine tag; made in house; host or cells: E. coli
T2 sequence (P27958 2421-2990 C2736Y): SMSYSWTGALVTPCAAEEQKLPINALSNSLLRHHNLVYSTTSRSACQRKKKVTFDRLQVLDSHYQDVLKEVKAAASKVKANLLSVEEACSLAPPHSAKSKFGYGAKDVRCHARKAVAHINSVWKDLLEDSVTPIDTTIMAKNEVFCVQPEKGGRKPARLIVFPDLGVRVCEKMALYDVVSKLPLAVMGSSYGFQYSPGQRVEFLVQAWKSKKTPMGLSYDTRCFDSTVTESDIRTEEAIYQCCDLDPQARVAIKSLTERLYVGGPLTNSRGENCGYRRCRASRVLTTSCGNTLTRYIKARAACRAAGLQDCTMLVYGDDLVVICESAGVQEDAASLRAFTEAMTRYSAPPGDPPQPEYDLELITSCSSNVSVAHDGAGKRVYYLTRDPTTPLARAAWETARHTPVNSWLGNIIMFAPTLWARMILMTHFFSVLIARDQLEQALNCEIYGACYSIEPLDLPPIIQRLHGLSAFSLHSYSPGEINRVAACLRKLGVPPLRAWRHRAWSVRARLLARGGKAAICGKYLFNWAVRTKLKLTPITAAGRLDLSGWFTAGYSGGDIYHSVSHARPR
Procedure: as §1, §2, §3, §4, §5

[5] = target: T3, HCV NS5B polymerase 1b BK strain (Hepatitis C virus genotype 1b, UniProt P26663); test: HCV NS5B polymerase enzymatic inhibition assay, strain 1b BK; assay type: biochemical; settings: enzyme, strain 1b BK; read-out: HCV Polymerase Strain 1b BK IC50
T3 construct: six-histidine tag; made in house; host or cells: E. coli
T3 sequence (P26663 2420-2989): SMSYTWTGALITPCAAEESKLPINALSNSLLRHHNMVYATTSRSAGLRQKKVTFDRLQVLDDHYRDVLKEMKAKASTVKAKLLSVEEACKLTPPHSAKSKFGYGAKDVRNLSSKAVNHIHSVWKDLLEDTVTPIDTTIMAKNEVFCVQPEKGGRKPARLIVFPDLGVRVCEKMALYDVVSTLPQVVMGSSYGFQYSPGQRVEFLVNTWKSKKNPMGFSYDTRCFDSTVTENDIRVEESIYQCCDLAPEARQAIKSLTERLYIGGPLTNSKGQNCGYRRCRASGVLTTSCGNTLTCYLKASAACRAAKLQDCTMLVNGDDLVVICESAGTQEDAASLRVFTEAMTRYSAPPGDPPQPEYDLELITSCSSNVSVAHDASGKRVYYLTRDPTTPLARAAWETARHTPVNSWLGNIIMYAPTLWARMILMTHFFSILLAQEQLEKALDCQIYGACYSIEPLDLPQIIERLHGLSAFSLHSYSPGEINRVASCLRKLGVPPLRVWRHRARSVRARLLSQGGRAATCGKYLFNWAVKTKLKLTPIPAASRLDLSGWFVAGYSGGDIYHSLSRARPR
Procedure: as §1, §2, §3, §4, §5

[6] = test system: HCV 1b-BB7 subgenomic replicon; test: microbe, parasite or virus in culture; assay type: cell-based, HCV genotype 1b; settings: Hepatitis C virus, stable replicon
[7] = 5% FBS, absence of human plasma, read-out: Stable Replicon 1a H77 5% FBS EC50
[8] = strain 1a H77, 5% FBS + 40% human plasma, read-out: 1a H77 5% FBS + 40% Human Plasma EC50
[9] = strain 1a H77, 5% FBS, no human plasma, read-out: 1a H77 5% FBS EC50
[10] = strain 1a H77, 5% FBS, read-out: 1a H77 5% FBS EC50
[11] = strain 1b BB7, 5% FBS + 40% human plasma, read-out: 1b BB7 5% FBS + 40% Human Plasma EC50
[12] = strain 1b BB7, 5% FBS, no human plasma, read-out: 1b BB7 5% FBS EC50
[13] = strain 1b BB7, 5% FBS, read-out: 1b BB7 5% FBS EC50

SMILES | pEC50 [1, 7] | pEC50 [1, 8] | pEC50 [1, 9] | pEC50 [1, 10] | pIC50 [2] | C316Y/1a Fold Resistance [3] | pIC50 [4] | pIC50 [5] | pEC50 [6, 11] | pEC50 [6, 12] | pEC50 [6, 13]
CS(=O)(=O)N(CCOc1ccccc1)c1cc2oc(-c3ccc(F)cc3)c(-c3ncc[nH]3)c2cc1C1CC1 [Example 43, N-[5-cyclopropyl-2-(4-fluorophenyl)-3-(1H-imidazol-2-yl)-1-benzofuran-6-yl]-N-(2-phenoxyethyl)methanesulfonamide] | 6.57 | 5.28 | 6.57 | 6.57 | 8.19 | 154 fold | 6.00 | 7.60 | 6.21 | 7.10 | 7.10
CS(=O)(=O)N(CC1CCCCC1)c1cc2oc(-c3ccc(F)cc3)c(-c3ncc[nH]3)c2cc1C1CC1 [Example 45, N-(cyclohexylmethyl)-N-[5-cyclopropyl-2-(4-fluorophenyl)-3-(1H-imidazol-2-yl)-1-benzofuran-6-yl]methanesulfonamide] | 7.06 | 5.52 | 7.06 | 7.06 | 8.12 | 39 fold | 6.53 | 6.96 | 5.36 | 6.74 | 6.74
COCCN(c1cc2oc(-c3ccc(F)cc3)c(-c3ncc[nH]3)c2cc1C1CC1)S(C)(=O)=O [Example 47, N-[5-cyclopropyl-2-(4-fluorophenyl)-3-(1H-imidazol-2-yl)-1-benzofuran-6-yl]-N-(2-methoxyethyl)methanesulfonamide] | 7.09 | 6.11 | 7.09 | 7.09 | 8.10 | 126 fold | 6.00 | 7.39 | 6.83 | 7.59 | 7.59
CS(=O)(=O)N(CC1CCNC1)c1cc2oc(-c3ccc(F)cc3)c(-c3ncc[nH]3)c2cc1C1CC1 (stereo not shown) [Example 51, N-[5-cyclopropyl-2-(4-fluorophenyl)-3-(1H-imidazol-2-yl)-1-benzofuran-6-yl]-N-(pyrrolidin-3-ylmethyl)methanesulfonamide] | 6.00 | 5.34 | 6.00 | 6.00 | 8.03 | 219 fold | 5.69 | 7.13 | 6.08 | 6.71 | 6.71
CC(C)N(c1cc2oc(-c3ccc(F)cc3)c(-c3ncc[nH]3)c2cc1C1CC1)S(C)(=O)=O [Example 52, N-[5-cyclopropyl-2-(4-fluorophenyl)-3-(1H-imidazol-2-yl)-1-benzofuran-6-yl]-N-isopropylmethanesulfonamide] | 6.89 | 5.85 | 6.89 | 6.89 | 8.11 | 286 fold | 5.65 | 6.88 | 6.18 | 6.94 | 6.94
COC(=O)CCCN(c1cc2oc(-c3ccc(F)cc3)c(-c3ncc[nH]3)c2cc1C1CC1)S(C)(=O)=O [Example 68, methyl 4-{[5-cyclopropyl-2-(4-fluorophenyl)-3-(1H-imidazol-2-yl)-1-benzofuran-6-yl](methylsulfonyl)amino}butanoate] | 7.24 | 5.92 | 7.24 | 7.24 | 8.23 | 17 fold | 6.99 | 7.70 | 6.30 | 7.21 | 7.21
CS(=O)(=O)N(CCC1CCCCC1)c1cc2oc(-c3ccc(F)cc3)c(-c3ncc[nH]3)c2cc1C1CC1 [Example 72, N-(2-cyclohexylethyl)-N-[5-cyclopropyl-2-(4-fluorophenyl)-3-(1H-imidazol-2-yl)-1-benzofuran-6-yl]methanesulfonamide] | 7.13 | 5.47 | 7.13 | 7.13 | 7.84 | 11 fold | 6.79 | 7.34 | 5.66 | 7.21 | 7.21
CS(=O)(=O)N(CC1CCCO1)c1cc2oc(-c3ccc(F)cc3)c(-c3ncc[nH]3)c2cc1C1CC1 (stereo not shown) [Example 75, N-[5-cyclopropyl-2-(4-fluorophenyl)-3-(1H-imidazol-2-yl)-1-benzofuran-6-yl]-N-(tetrahydrofuran-2-ylmethyl)methanesulfonamide] | 7.16 | 5.97 | 7.16 | 7.16 | 8.19 | 247 fold | 5.80 | 7.22 | 5.94 | 7.35 | 7.35
CC(C)=CCCN(c1cc2oc(-c3ccc(F)cc3)c(-c3ncc[nH]3)c2cc1C1CC1)S(C)(=O)=O [Example 76, N-[5-cyclopropyl-2-(4-fluorophenyl)-3-(1H-imidazol-2-yl)-1-benzofuran-6-yl]-N-(4-methylpent-3-en-1-yl)methanesulfonamide] | 7.31 | 5.40 | 7.31 | 7.31 | 8.23 | 22 fold | 6.88 | 7.64 | 6.18 | 7.57 | 7.57
Cc1ncsc1CCN(c1cc2oc(-c3ccc(F)cc3)c(-c3ncc[nH]3)c2cc1C1CC1)S(C)(=O)=O [Example 78, N-[5-cyclopropyl-2-(4-fluorophenyl)-3-(1H-imidazol-2-yl)-1-benzofuran-6-yl]-N-[2-(4-methyl-1,3-thiazol-5-yl)ethyl]methanesulfonamide] | 7.41 | 5.97 | 7.41 | 7.41 | 8.40 | 27 fold | 6.97 | 7.89 | 6.29 | 7.80 | 7.80
CS(=O)(=O)N(CCN1CCCC1)c1cc2oc(-c3ccc(F)cc3)c(-c3ncc[nH]3)c2cc1C1CC1 [Example 81, N-[5-cyclopropyl-2-(4-fluorophenyl)-3-(1H-imidazol-2-yl)-1-benzofuran-6-yl]-N-[2-(pyrrolidin-1-yl)ethyl]methanesulfonamide] | 6.69 | 6.14 | 6.69 | 6.69 | 7.50 | 151 fold | 5.32 | 6.86 | 6.89 | 7.43 | 7.43

Reference: patent US20160355530A1, “HEPATITIS C INHIBITORS AND USES THEREOF” (AbbVie Inc., priority 2010, published 2016)
